Reference: patent publication US8552220B2, “Therapeutic agent for Alzheimer's disease” (Tokyo Institute of Technology, priority 2008, dated 2013)

| Structure (SMILES) | melting point [°C] |
| --- | --- |
| CN(C)c1ccc(/C=C/C(=O)CC(=O)/C=C/c2ccc(O)cc2)c(C(F)(F)F)c1 [CU555, (1E,6E)-1-(4-dimethylamino-2-trifluoromethylphenyl)-7-(4-hydroxyphenyl)hepta-1,6-diene-3,5-dione] | 195 to 199 |
| CN(C)c1ccc(/C=C/C(=O)CC(=O)CCc2ccc(O)cc2)c(C(F)(F)F)c1 [CU556, (E)-1-(4-dimethylamino-2-trifluoromethylphenyl)-7-(4-hydroxyphenyl)hept-1-ene-3,5-dione] | 110 to 114 |
| COc1cc(O)ccc1/C=C/C(=O)CC(=O)/C=C/c1cc(OCc2ccccc2)ccc1-c1ccccc1 [CU559, (1E,6E)-1-(4-benzyloxybiphenyl-2-yl)-7-(4-hydroxy-2-methoxyphenyl)hepta-1,6-diene-3,5-dione] | 175 to 180 |
| COc1cc(O)ccc1/C=C/C(=O)CC(=O)/C=C/c1cc(O)ccc1Br [CU561, (1E,6E)-1-(2-bromo-5-hydroxyphenyl)-7-(4-hydroxy-2-methoxyphenyl)hepta-1,6-diene-3,5-dione] | 92 to 98 |
| O=C(/C=C/c1ccc2cc[nH]c2c1)CC(=O)/C=C/c1cc(O)ccc1Br [CU562, (1E,6E)-1-(2-bromo-5-hydroxyphenyl)-7-(1H-indol-6-yl)hepta-1,6-diene-3,5-dione] | 196 to 200 |
| O=C(/C=C/c1ccc2cc[nH]c2c1)CC(=O)/C=C/c1cc(OCc2ccccc2)ccc1-c1ccccc1 [CU566, (1E,6E)-1-(4-benzyloxybiphenyl-2-yl)-7-(1H-indol-6-yl)hepta-1,6-diene-3,5-dione] | 178 to 183 |
| COc1cc(O)ccc1/C=C/C(=O)CC(=O)/C=C/c1ccccc1C(F)(F)F [CU574, (1E,6E)-1-(4-hydroxy-2-methoxyphenyl)-7-(2-trifluoromethylphenyl)hepta-1,6-diene-3,5-dione] | 176 to 180 |
| COc1cc(O)ccc1/C=C/C(=O)CC(=O)/C=C/c1ccc(N(C)C)cc1Cl [CU581, (1E,6E)-1-(2-chloro-4-dimethylaminophenyl)-7-(4-hydroxy-2-methoxyphenyl)hepta-1,6-diene-3,5-dione] | 187 to 192 |
| COc1cc(O)ccc1/C=C/C(=O)CC(=O)/C=C/c1cc(O)ccc1-c1ccccc1 [CU582, (1E,6E)-1-(4-hydroxybiphenyl-2-yl)-7-(4-hydroxy-2-methoxyphenyl)hepta-1,6-diene-3,5-dione] | 108 to 114 |
| CN(C)c1ccc(/C=C/C(=O)CC(=O)/C=C/c2ccc3cc[nH]c3c2)c(Cl)c1 [CU584, (1E,6E)-1-(2-chloro-4-dimethylaminophenyl)-7-(1H-indol-6-yl)hepta-1,6-diene-3,5-dione] | 180 to 185 |
| COc1cc(O)ccc1/C=C/C(=O)CC(=O)/C=C/c1cc(O)ccc1[N+](=O)[O-] [CU585, (1E,6E)-1-(4-hydroxy-2-methoxyphenyl)-7-(5-hydroxy-2-nitrophenyl)hepta-1,6-diene-3,5-dione] | 119 to 123 |
| O=C(/C=C/c1ccc2cc[nH]c2c1)CC(=O)/C=C/c1cc(OCc2ccccc2)ccc1[N+](=O)[O-] [CU588, (1E,6E)-1-(5-benzyloxy-2-nitrophenyl)-7-(1H-indol-6-yl)hepta-1,6-diene-3,5-dione] | 181 to 186 |
| CN(C)c1ccc(/C=C/C(=O)CC(=O)/C=C/c2ccc3cc[nH]c3c2)c([N+](=O)[O-])c1 [CU592, (1E,6E)-1-(4-dimethylamino-2-nitrophenyl)-7-(1H-indol-6-yl)hepta-1,6-diene-3,5-dione] | 196 to 201 |
| COc1cc(O)ccc1/C=C/C(=O)CC(=O)/C=C/c1cc(OCc2ccccc2)ccc1[N+](=O)[O-] [CU594, (1E,6E)-1-(5-benzyloxy-2-nitrophenyl)-7-(4-hydroxy-2-methoxyphenyl)hepta-1,6-diene-3,5-dione] | 183 to 186 |
| O=C(/C=C/c1ccc2cc[nH]c2c1)CC(=O)/C=C/c1cc(O)ccc1[N+](=O)[O-] [CU596, (1E,6E)-1-(5-hydroxy-2-nitrophenyl)-7-(1H-indol-6-yl)hepta-1,6-diene-3,5-dione] | 204 to 207 |
| COc1cc(O)ccc1/C=C/C(=O)CC(=O)/C=C/c1ccc(O)cc1Cl [CU600, (1E,6E)-1-(2-chloro-4-hydroxyphenyl)-7-(4-hydroxy-2-methoxyphenyl)hepta-1,6-diene-3,5-dione] | 206 to 211 |
| O=C(/C=C/c1ccc2cc[nH]c2c1)CC(=O)/C=C/c1ccc(O)cc1Cl [CU601, (1E,6E)-1-(2-chloro-4-hydroxyphenyl)-7-(1H-indol-6-yl)hepta-1,6-diene-3,5-dione] | 182 to 186 |
| COc1cc(O)ccc1/C=C/C(=O)CC(=O)/C=C/c1ccc(N(C)C)cc1[N+](=O)[O-] [CU603, (1E,6E)-1-(4-dimethylamino-2-nitrophenyl)-7-(4-hydroxy-2-methoxyphenyl)hepta-1,6-diene-3,5-dione] | 223 to 226 |

Next, values leading:

| melting point [°C] | Structure (SMILES) |
| --- | --- |
| 185 to 191 | O=C(/C=C/c1ccc2cc[nH]c2c1)CC(=O)/C=C/c1cc(O)ccc1-c1ccccc1 [CU604, (1E,6E)-1-(4-hydroxybiphenyl-2-yl)-7-(1H-indol-6-yl)hepta-1,6-diene-3,5-dione] |
| 90 to 96 | COc1ccc(O)cc1/C=C/C(=O)CC(=O)/C=C/c1cc(O)ccc1Br [CU608, (1E,6E)-1-(2-bromo-5-hydroxyphenyl)-7-(5-hydroxy-2-methoxyphenyl)hepta-1,6-diene-3,5-dione] |
| 209 to 214 | CN(C)c1ccc(/C=C/C(=O)CC(=O)/C=C/c2cc(O)ccc2Br)c(Cl)c1 [CU609, (1E,6E)-1-(2-bromo-5-hydroxyphenyl)-7-(2-chloro-4-dimethylaminophenyl)hepta-1,6-diene-3,5-dione] |
| 132 to 136 | O=C(/C=C/c1ccc(O)cc1Cl)CC(=O)/C=C/c1cc(O)ccc1[N+](=O)[O-] [CU611, (1E,6E)-1-(2-chloro-4-hydroxyphenyl)-7-(5-hydroxy-2-nitrophenyl)hepta-1,6-diene-3,5-dione] |
| 239 to 243 | O=C(/C=C/c1cc(O)ccc1Br)CC(=O)/C=C/c1cc(O)ccc1Br [CU614, (1E,6E)-1,7-bis(2-bromo-5-hydroxyphenyl)hepta-1,6-diene-3,5-dione] |
| 66 to 70 | O=C(/C=C/c1cc(O)ccc1Br)CC(=O)/C=C/c1ccccc1C(F)(F)F [CU615, (1E,6E)-1-(2-bromo-5-hydroxyphenyl)-7-(2-trifluoromethylphenyl)hepta-1,6-diene-3,5-dione] |
| 101 to 104 | O=C(/C=C/c1cc(O)ccc1Br)CC(=O)/C=C/c1cc(O)ccc1-c1ccccc1 [CU616, (1E,6E)-1-(2-bromo-5-hydroxyphenyl)-7-(4-hydroxybiphenyl-2-yl)hepta-1,6-diene-3,5-dione] |
| 205 to 209 | O=C(/C=C/c1ccc(O)cc1)CC(=O)/C=C/c1cc(O)ccc1F [CU621, (1E,6E)-1-(2-fluoro-5-hydroxyphenyl)-7-(4-hydroxyphenyl)hepta-1,6-diene-3,5-dione] |
| 146 to 150 | O=C(/C=C/c1ccc(O)cc1)CC(=O)/C=C/c1ccccc1F [CU622, (1E,6E)-1-(2-fluorophenyl)-7-(4-hydroxyphenyl)hepta-1,6-diene-3,5-dione] |
| 186 to 192 | O=C(/C=C/c1ccc(O)cc1)CC(=O)/C=C/c1ccccc1-n1cncn1 [CU623, (1E,6E)-1-[2-(1H-1,2,4-triazol-1-yl)phenyl]-7-(4-hydroxyphenyl)hepta-1,6-diene-3,5-dione] |
